Measurements: patent publication US20150182605A1, “Ultra-Low Dose Lysostaphin for Treating MRSA” (priority 2013, published 2015)

How the values were obtained:
SA5 (ATCC 49521) = test: Effect of antibiotics and lysostaphin on growth of SA5 (% T, 96-well); assay type: cell-based, Staphylococcus aureus; settings: for inhibition and killing of the staph by antibiotic alone: antibiotic alone at 25 or 12.5 mg/ml, 5 and 22 hours
Procedure: It was determined whether low levels of lysostaphin would act synergistically with Nafcillin or Oxacillin to kill an SA5 (ATCC 49521). The study was performed in a 96-well dish to allow titration of lysostaphin and antibiotics. The end point was % T. Plating of bacteria from the assay plate was not done.
Fifty μl of SA5 (ATCC 49521) was reconstituted from a frozen stock and grown overnight on a blood agar plate at 37° C. Bacteria were transferred from the blood agar plate (approximately 25% of the lawn) into 30 mls of TSB and grown for 2 hours at 37° C. on a rotating shaker set at 250 rpm. […] A 1:4 dilution of this suspension in TSB gave a % T of ˜50% in a 96 well dish.
For the assay, lysostaphin (Sigma Cat L7386; lot 063M4011V; 3387.5 units/ml stock in water) was diluted in three-fold dilutions (in TSB) from 3 units/ml (row A) to 0.0123 units/ml (row G) in 50 μl/well. The wells in row H received TSB alone. This plate was designated the assay plate. In a separate 96-well plate (i.e. the dilution plate), Nafcillin (Sigma Cat N3269; lot SLBF8230V, 50 mg/ml in water) was diluted in TSB to 25 mg/ml and a second dilution of 12.5 mg/ml was also prepared (columns 1 and 2 of the dilution plate). Oxacillin (Sigma Cat 01002; lot SLBC9948V; 50 mg/ml in water) was diluted to 25 mg/ml in TSB and a second dilution of 12.5 mg/ml was also prepared (columns 4 and 5 of the dilution plate).
Fifty μl of the antibiotic solutions were transferred to the corresponding wells of the assay plate containing the lysostaphin solution. 50 μl of TSB alone was transferred to columns 3 and 6 (i.e. no antibiotic controls) of the assay plate. The combination of antibiotics and lysostaphin yielded a volume of 100 μl. 125 μl of S. aureus 49521, diluted 1:2 in TSB was then added to all wells of the plate, except wells H1, H2, H4 and H5, which served as the blank well for determining the % T. After addition of the bacteria, and between each determination of the % T, the plate was incubated at 37° C. with gentle rotation (˜50 rpm). The % T was then determined at 2 and 15 minutes after addition of the bacteria, and again at 5 hours and 22 hours after addition of the bacteria.

[1] = test system: S. aureus type 5 (ATCC 49521); test: % T (turbidity) lysis assay of S. aureus type 5 suspension in tubes; assay type: cell-based, Staphylococcus aureus; settings: 10 minutes at 37° C.
Procedure: 50 μl of S. aureus type 5 (ATCC 49521) was plated onto blood agar plates and incubated overnight. The resulting bacterial lawn was transferred to 30 mls of TSB (tryptic soy broth; Remel cat 112740) and incubated at 37° C. for about 60 minutes at 225 rpm. The percent transmission (% T) of the bacterial suspension following incubation was about 7%. The % T was adjusted to 53% by addition of 100 μl of bacterial suspension to 4500 μl of TSB (in five individual tubes) and the % T was measured in each tube. An additional tube contained TSB alone. Tube #1 received no lysostaphin. Tube #2 was designated to receive 550 μl of recombinant lysostaphin, but the lysostaphin was erroneously added to Tube #3, and thus, Tube #2 was discarded. Tube #3 received 550 μl recombinant lysostaphin (from a 2,000 μg/ml stock solution) for a final concentration of about 220 μg/ml (this tube erroneously received lysostaphin dose intended for tube #2 (i.e. 500 μl of lysostaphin stock) plus the 50 μl of lysostaphin originally intended for this tube. Tube #4 received 500 μl of natural lysostaphin from S. staphylolyticus (from a 2,000 μg/ml stock solution) for a final concentration of about 200 μg/ml. Tube #5 received 50 μl of natural lysostaphin from S. staphylolyticus (from a 2,000 μg/ml stock solution) for a final concentration of about 20 μg/ml. The tubes were vortexed, incubated at 37° C. for 10 minutes at 150 rpm and the % T for each determined (see FIG. 3 which is summarized in Table 2). An increase in the % T indicates killing of bacteria. Both lysostaphins were highly likely active against this SA5.

SA5 = test: % T lysis assay of SA5 in 96-well configuration; assay type: cell-based, Staphylococcus aureus; settings: 0.1 μg/ml; for change in % T / killing: neat solution of SA5, 10 minutes at 37° C. (FIG. 4)
Procedure: A second assay was performed in which the SA5 and lysostaphin were tested in a 96-well configuration. For this assay, 100 μl of the SA5 solution was added to wells followed by 100 μl of the lysostaphin solution. % T was obtained at TO and the plate incubated at 37° C. for 10 minutes with gentle rotation. The % T was obtained and the results compared.

[2] = test system: anti-lysostaphin antibodies; test: Assay of mouse sera on lysostaphin-coated plates after immunization; assay type: binding; settings: gamma-specific detection, compared with the other lysostaphin as coating antigen, regardless of the immunogen
Procedure: Assay of mouse sera on plates coated with lysostaphin from simulans expressed as recombinant in E coli and coated with natural lysostaphin from S. staphylolyticus. Mice received a primary immunization (subcutaneous) with 10 μg recombinant lysostaphin from E. coli (Sigma-Aldrich) (animal numbers 8603, 8604) or 10 μg of natural lysostaphin from S. staphylolyticus (Sigma-Aldrich) (animal numbers 8621-8623). Primary immunization was administered and boosted about three weeks later. No adjuvant was used for the immunizations. Serum samples were tested using gamma-specific detection (FIGS. 1 and 2). Bars represent binding seen with normal serum (first bar), serum after the first injection (second bar), and serum after the boost injection three weeks later (third and in most cases largest bar). The results on wells coated with simulans lysostaphin (FIG. 1) were stronger than the results on wells coated with staphylolyticus lysostaphin (FIG. 2), regardless of the immunogen. Mouse 8621 was poorly reactive on both coating antigens. Note that each graph is scaled to 1.500 on the y-axis for comparison purposes.

S. aureus cells [3] = test: Enzymatic activity per certificate of analysis (COA); assay type: biochemical, Staphylococcus aureus; settings: from COAs of both products
Procedure: Doses may also be as international units. One international unit (IU) is about 3.1 μg and will reduce the turbidity (A620) of a suspension of S. aureus cells from 0.250 to 0.125 in 10 minutes at pH 7.5 at 37° C. in a 6.0 ml reaction mixture.

S. aureus cells [4] = settings: from COA; cited from earlier work

CCOc1ccc2ccccc2c1C(=O)N[C@@H]1C(=O)N2[C@@H]1SC(C)(C)[C@@H]2C(=O)O [Nafcillin, reference compound]
inhibition and killing of the staph by antibiotic alone (SA5 (ATCC 49521)): ineffective rapid inhibition and killing

Cc1onc(-c2ccccc2)c1C(=O)N[C@@H]1C(=O)N2[C@@H]1SC(C)(C)[C@@H]2C(=O)O [Oxacillin, reference compound]
inhibition and killing of the staph by antibiotic alone (SA5 (ATCC 49521)): ineffective rapid inhibition and killing

lysostaphin: lysostaphin (Sigma Cat L7386; lot 063M4011V; 3387.5 units/ml stock in water); 27 kD glycylglycine endopeptidase
synergy of lysostaphin with the antibiotics (SA5 (ATCC 49521); lysostaphin 0.0123 units/ml with Nafcillin or Oxacillin, 5 to 22 hours): acted synergistically | % T (SA5 (ATCC 49521); lysostaphin 0.0123 units/ml without antibiotic, 5 hours, FIG. 8): 97.0 % T | % T (SA5 (ATCC 49521); lysostaphin 0.0123 units/ml without antibiotic, 5 hours, FIG. 11): 98.0 % T | % T (SA5 (ATCC 49521); lysostaphin 0.0123 units/ml without antibiotic, 22 hours, FIG. 8): 75.4 % T | % T (SA5 (ATCC 49521); lysostaphin 0.0123 units/ml without antibiotic, 22 hours, FIG. 11): 60.2 % T | % T (SA5 (ATCC 49521); lysostaphin 0.0123 units/ml, within 5 hours): > 95 % T | % T (SA5 (ATCC 49521); lysostaphin at concentrations higher than 0.0123 units/ml, at 5 (not shown)): > 95% | % T (SA5 (ATCC 49521); most concentrations of lysostaphin, without antibiotics, after 22 hours): below 70%

natural lysostaphin: natural lysostaphin from S. staphylolyticus (Sigma-Aldrich)
Ending % T ([1]; 20 μg/ml, tube 5): 95.0 % T | Ending % T ([1]; 200 μg/ml, tube 4): 94.6 % T | change in % T (SA5; SA5 at a dilution of 1:2 vs neat SA5 (FIG. 5)): greater change | change in % T / killing (SA5): increased only slightly

recombinant lysostaphin: lysostaphin from simulans expressed as recombinant in E. coli (Sigma-Aldrich)
Ending % T ([1]; 220 μg/ml, tube 3, increase in % T indicates killing): 94.0 % T | change in % T / killing (SA5): remained strong | binding of mouse serum antibodies to the coated lysostaphin [2]: markedly higher binding | binding of mouse serum antibodies to the coated lysostaphin ([2]; listed as simulans lysostaphin): stronger | activity relative to natural lysostaphin (S. aureus cells [3]): 6-7 fold | enzymatic activity (S. aureus cells [4]): greater than 3,000 units per mg
